Legend:
Assay type in all cases: cell-based, human
HNSCC #011 cell line = assay: Microarray screen for reactivated genes in HNSCC cells; conditions: 10 μM 5Aza-dC
Procedure: (§1) Cells were split to low density (5×10^5 per T-25 flask) 12 to 24 hr before treatment, then treated for 3, 4, or 5 days with 1 μM or 5 μM 5Aza-dC (Sigma) from 100-mM 50% acetic acid dissolved stock or were mock-treated with the same volume of phosphate buffered saline (PBS) including the same acetic acid. Following an initial incubation (48 hr) of 5Aza-dC, a final concentration of 300 nM TSA (Sigma) was added to the media from a 5 mM ethanol dissolved stock, or cells were mock-treated with an identical volume of ethanol.
(§2) Oligonucleotide microarray analysis was performed using the GeneChip™ Human Genome U95Av2 Array (Affymetrix), which contains 12,599 genes, according to the manufacturer's instruction. […] RNA was isolated using TRIZOL reagent (Invitrogen Corp.) and reverse-transcribed total RNA (8 μg) with M-MLV (Invitrogen Corp.); one one-hundredth of the cDNA product was used as a template for PCR. RT-PCR was performed at 24 to 30 cycles: 95° C. for 1 min, 54 or 56° C. for 1 min, and 72° C. for 1 min.
HNSCC cells were incubated with 10 μM 5Aza-dC or with 0.1 μM 5Aza-dC and 300 nM TSA and screened as described in Example 1.

KYSE30 = assay: Oligonucleotide microarray: genes up-regulated after 5Aza-dC ± TSA treatment; conditions: at least 3.0 fold increase
Procedure: as §1, §2
(§3) Treatment of cells with the demethylating agent 5aza-dC (1 μM or 5 μM) for 3 to 5 days, and with or without the histone deacetylase inhibitor, TSA (300 nM; last 24 hours), was used to reactivate genes epigenetically silenced in 3 ESCC cell lines. […] The number of candidate genes was further diminished by comparing expression patterns (see world wide web, at URL “cgap.nci.nih.gov”) in normal esophagus and carcinoma tissue samples (eliminating those genes not expressed in normal tissue), and excluding unknown genes.

KYSE410 = assay: as above; conditions: at least 3.0 fold increase
Procedure: as §1, §2, §3

KYSE520 = assay: as above; conditions: at least 3.0 fold increase
Procedure: as §1, §2, §3

3 ESCC cell lines = assay: Microarray screen, pooled over the 3 ESCC cell lines
Procedure: as §1, §2
Treatment of cells with the demethylating agent 5aza-dC (1 μM or 5 μM) for 3 to 5 days, and with or without the histone deacetylase inhibitor, TSA (300 nM; last 24 hours), was used to reactivate genes epigenetically silenced in 3 ESCC cell lines. […]

## Nc1ncn([C@H]2C[C@H](O)[C@@H](CO)O2)c(=O)n1 [5Aza-dC, 5-aza-2′-deoxycytidine]
HNSCC #011 cell line; HNSCC cells
  Reactivation of epigenetically silenced genes: Reactivation of epigenetically silenced genes was observed
HNSCC #011 cell line; probe 425_at, HNSCC #011
  Fold increase in expression: H.sapiens p27 mRNA (X67325): 5.8 fold
HNSCC #011 cell line; probe 595_at, HNSCC #011
  Fold increase in expression: tumor necrosis factor alpha inducible protein: 3.648 fold
HNSCC #011 cell line; probe 1668_s_a, HNSCC #011
  Fold increase in expression: von Hippel-Lindau disease tumor suppressor mRNA: 2.4375 fold
HNSCC #011 cell line; probe 1736_at, HNSCC #011
  Fold increase in expression: insulin-like growth factor binding protein 6 (IGFBP6) gene (M62402): 2.2 fold
HNSCC #011 cell line; probe 1776_at, HNSCC #011
  Fold increase in expression: Human Rad mRNA (L24564): 10.9 fold
HNSCC #011 cell line; probe 1814_at, HNSCC #011
  Fold increase in expression: mRNA for TGF-betaIIR alpha: 3.3 fold
HNSCC #011 cell line; probe 1860_at, HNSCC #011
  Fold increase in expression: Human Bc12, p53 binding protein (U58334): 2.3 fold
HNSCC #011 cell line; probe 1879_at, HNSCC #011
  Fold increase in expression: Human R-ras gene (M14949): 3.7 fold
HNSCC #011 cell line; probe 1902_at, HNSCC #011
  Fold increase in expression: Human excision repair protein (ERCC1) mRNA: 5.562 fold
HNSCC #011 cell line; probe 2031_s_a, HNSCC #011
  Fold increase in expression: Human wild-type p53 activated fragment-1 (WAF1) mRNA (U03106): 2.9 fold
HNSCC #011 cell line; probe 32034_at, HNSCC #011
  Fold increase in expression: breast cancer putative transcription factor (ZABC1) gene (AF041259): 3.1 fold
HNSCC #011 cell line; probe 34892_at, HNSCC #011
  Fold increase in expression: DR4 homolog; TRAIL receptor 2: 2.4292 fold
HNSCC #011 cell line; probe 35151_at, HNSCC #011
  Fold increase in expression: DOC-1 related protein: 2.4474 fold
HNSCC #011 cell line; probe 36953_at, HNSCC #011
  Fold increase in expression: Mothers against dpp (Mad) gene (DPC4 gene), U10328: 3.5132 fold
HNSCC #011 cell line; probe 38374_at, HNSCC #011
  Fold increase in expression: TGFb inducible early protein and early growth response protein alpha genes (AF050110): 2.3 fold
HNSCC #011 cell line; probe 39781_at, HNSCC #011
  Fold increase in expression: insulin-like growth factor binding protein 4 (IGFBP4) gene (U20982): 3.7 fold
KYSE30; 1 μM 5Aza-dC
  Genes upregulated by microarray analysis after treatments: 46 genes
KYSE30; 5 μM 5Aza-dC
  Genes upregulated by microarray analysis after treatments: 242 genes
KYSE410; 1 μM 5Aza-dC
  Genes upregulated by microarray analysis after treatments: 15 genes
KYSE410; 5 μM 5Aza-dC
  Genes upregulated by microarray analysis after treatments: 334 genes
KYSE520; 1 μM 5Aza-dC
  Genes upregulated by microarray analysis after treatments: 5 genes
KYSE520; 5 μM 5Aza-dC
  Genes upregulated by microarray analysis after treatments: 149 genes
3 ESCC cell lines; 5 μM 5Aza-dC treatment group, 3 ESCC cell lines
  Share of all up-regulated genes included in the treatment group: > 80%
3 ESCC cell lines; after 5Aza-dC treatments
  STAT3 expression after treatment: did not change

From patent US7781161B2, “Genomic screen for epigenetically silenced tumor suppressor genes” (The Johns Hopkins University School of Medicine, priority 2002, dated 2010)
